Test results as given in ChEMBL document CHEMBL1137463, “Discovery and structure-activity relationships of new steroidal compounds bearing a carboxy-terminal side chain as androgen receptor pure antagonists” (Bioorg Med Chem Lett, 2007).

How the values were obtained:
[1] = molecular target: T1, Androgen receptor (Homo sapiens, UniProt P10275)
T1 sequence (P10275 whole entry): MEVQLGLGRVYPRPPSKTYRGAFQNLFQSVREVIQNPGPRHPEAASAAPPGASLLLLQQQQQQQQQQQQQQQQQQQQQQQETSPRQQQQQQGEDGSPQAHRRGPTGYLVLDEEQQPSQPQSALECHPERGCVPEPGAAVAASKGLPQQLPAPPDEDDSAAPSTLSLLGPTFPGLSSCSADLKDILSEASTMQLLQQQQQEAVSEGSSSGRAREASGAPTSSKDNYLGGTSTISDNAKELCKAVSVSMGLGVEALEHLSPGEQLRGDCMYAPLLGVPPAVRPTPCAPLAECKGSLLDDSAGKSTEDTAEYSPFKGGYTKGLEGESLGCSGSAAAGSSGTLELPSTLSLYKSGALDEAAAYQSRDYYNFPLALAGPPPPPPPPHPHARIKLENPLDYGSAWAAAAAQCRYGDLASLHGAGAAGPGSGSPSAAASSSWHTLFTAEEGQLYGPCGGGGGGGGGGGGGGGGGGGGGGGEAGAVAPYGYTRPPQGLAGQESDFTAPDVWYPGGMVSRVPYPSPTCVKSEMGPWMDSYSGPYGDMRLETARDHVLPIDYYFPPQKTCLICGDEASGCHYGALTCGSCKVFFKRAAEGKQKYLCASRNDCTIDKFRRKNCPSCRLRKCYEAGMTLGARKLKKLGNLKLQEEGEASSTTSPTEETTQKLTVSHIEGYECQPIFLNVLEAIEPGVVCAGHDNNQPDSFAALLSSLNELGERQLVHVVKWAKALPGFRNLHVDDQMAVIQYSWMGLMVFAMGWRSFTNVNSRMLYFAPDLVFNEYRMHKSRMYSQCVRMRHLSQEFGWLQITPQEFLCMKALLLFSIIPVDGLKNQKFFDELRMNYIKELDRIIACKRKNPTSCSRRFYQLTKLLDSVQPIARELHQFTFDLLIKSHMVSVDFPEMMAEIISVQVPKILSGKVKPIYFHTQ
Description: Antagonist activity at human androgen receptor expressed in HeLa cells assessed as inhibition of dihydrotestosterone induced transcriptional activity by reporter gene assay

[2] = molecular target: T1, Androgen receptor; assay: biochemical
Description: Displacement of [3H]mibolerone from human androgen receptor expressed in CHOK1 cells

[3] = molecular target: T2, Androgen receptor (Homo sapiens) (UniProt P10275); conditions: HeLa
T2 sequence (whole entry): T1 sequence (P10275 whole entry)
Description: Agonist activity at human androgen receptor expressed in HeLa cells assessed as five times increase in transcriptional activity by reporter gene assay

[4] = tested on: Mus musculus; assay: Inhibition of testosterone propionate-stimulated seminal vesicle weight gain in castrated mouse at 3 mg/body, sc; type: functional
[5] = tested on: Mus musculus; assay: Inhibition of testosterone propionate-stimulated seminal vesicle weight gain in castrated mouse at 1 mg/body, sc; type: functional
[6] = tested on: Mus musculus; assay: Inhibition of testosterone propionate-stimulated seminal vesicle weight gain in castrated mouse at 10 mg/body, sc; type: functional

| SMILES | IC50 [1] | IC50 [2] | FI5 [3] | Inhibition [4] | Inhibition [5] | Inhibition [6] |
| --- | --- | --- | --- | --- | --- | --- |
| C[C@]12CCC(=O)C=C1C[C@@H](CCCc1ccc(OCCC(=O)O)cc1)[C@@H]1[C@@H]2CC[C@@]2(C)[C@H]1CC[C@]2(C)O | 170 nM | 300 nM | 2500 nM | – | – | – |
| C[C@]12CCC(=O)C=C1C[C@@H](CCCCc1cccc(OCCCCC(=O)O)c1)[C@@H]1[C@@H]2CC[C@@]2(C)[C@H]1CC[C@]2(C)O | – | 350 nM | > 10000 nM | – | – | – |
| C[C@]12CCC(=O)C[C@@H]1C[C@@H](CCCCCCCC(=O)O)[C@@H]1[C@@H]2CC[C@]2(C)[C@@H](O)CC[C@@H]12 | 730 nM | 660 nM | 110 nM | – | – | – |
| C[C@]12CCC(=O)C=C1C[C@@H](CCCc1cccc(OCCCC(=O)O)c1)[C@@H]1[C@@H]2CC[C@@]2(C)[C@H]1CC[C@]2(C)O | 5800 nM | – | 1500 nM | – | – | – |
| C[C@]12CCC(=O)C=C1C[C@@H](CCCCCCCCCC(=O)O)[C@@H]1[C@@H]2CC[C@@]2(C)[C@H]1CC[C@]2(C)O | 2000 nM | 600 nM | > 10000 nM | – | – | – |
| C[C@]12CCC(=O)C=C1C[C@@H](CCCCc1ccc(OCCCCCC(=O)O)cc1)[C@@H]1[C@@H]2CC[C@@]2(C)[C@H]1CC[C@]2(C)O | 420 nM | – | 100 nM | – | – | – |
| CN(C)C(=O)CCCCCCC[C@@H]1C[C@H]2CC(=O)CC[C@]2(C)[C@H]2CC[C@]3(C)[C@@H](O)CC[C@H]3[C@H]12 | 190 nM | 260 nM | > 10000 nM | – | – | – |
| C[C@]12CCC(=O)C=C1C[C@@H](CCCCc1cccc(OCCCC(=O)O)c1)[C@@H]1[C@@H]2CC[C@@]2(C)[C@H]1CC[C@]2(C)O | 920 nM | 670 nM | > 10000 nM | – | – | – |
| C[C@]12CCC(=O)C=C1C[C@@H](CCCCc1cccc(OCCCCCC(=O)O)c1)[C@@H]1[C@@H]2CC[C@@]2(C)[C@H]1CC[C@]2(C)O | 530 nM | 120 nM | > 10000 nM | – | – | – |
| C[C@]12CCC(=O)C[C@@H]1C[C@@H](CCCCCCCCC(CCCC(F)(F)C(F)(F)F)C(=O)O)[C@@H]1[C@@H]2CC[C@]2(C)[C@@H](O)CC[C@@H]12 (stereo not given in full) | > 10000 nM | 410 nM | 13 nM | – | – | – |
| C[C@]12CCC(=O)C=C1C[C@@H](CCCc1ccc(OCCCC(=O)O)cc1)[C@@H]1[C@@H]2CC[C@@]2(C)[C@H]1CC[C@]2(C)O | 660 nM | 430 nM | > 10000 nM | – | – | – |
| C[C@]12CCC(=O)C=C1C[C@@H](CCCCc1ccc(OCCCC(=O)O)cc1)[C@@H]1[C@@H]2CC[C@@]2(C)[C@H]1CC[C@]2(C)O | 850 nM | – | 170 nM | – | – | – |
| C[C@]12CCC(=O)C=C1C[C@@H](CCCCc1ccc(OCCCCC(=O)O)cc1)[C@@H]1[C@@H]2CC[C@@]2(C)[C@H]1CC[C@]2(C)O | 250 nM | 96 nM | 2000 nM | – | – | – |
| C[C@]12CCC(=O)C[C@@H]1C[C@@H](CCCCCCCCCC(=O)O)[C@@H]1[C@@H]2CC[C@]2(C)[C@@H](O)CC[C@@H]12 | 920 nM | 350 nM | 120 nM | – | – | – |
| CC(C)(O)C(=O)Nc1ccc([N+](=O)[O-])c(C(F)(F)F)c1 [HYDROXYFLUTAMIDE] | – | – | 1000 nM | 0.8% | 6.7% | 6.4% |
| C[C@]12CCC(=O)C=C1C[C@@H](CCCc1ccc(OCCCCC(=O)O)cc1)[C@@H]1[C@@H]2CC[C@@]2(C)[C@H]1CC[C@]2(C)O | 300 nM | 660 nM | 3200 nM | – | – | – |
